In USRE36385E, “Glucopyranose derivatives” (Ono Pharmaceutical Co., Ltd., priority 1985, dated 1999):

Key:
[1] = system: Meth-A sarcoma; assay: Anti-tumor effect on Balb/C mice inoculated with Meth-A Sarcoma; type: in vivo, female Balb/C mice; conditions: for Apperarent tumor weight: g ± standard error; for effect on prolongation of life / effect on tumore regression: at the dose of 3 mg/kg; for Survival period: iv tail vein Day 7, 9, 12, day ± standard error
Procedure: (1) Anti-tumor effect on Balb/C mice inocudlated with Meth-A Sarcoma
Anti-tumor effect was measured by the following procedure.
Tumor cells which had been maintained in ascites of Balb/C mouse generation after generation was used. One group is consisting of eight female Balb/C mice. Meth-A sarcoma tumor (1×10^5 cells/0.05 ml) was inoculated into left side of female mice of 7-week old (body weight: 18-20 g). Seven day after, when tumor size came to 6~9 mm, test compound was administered into tail vein first (day 7) and then administered two times (total three times: Day 7, 9, 12). Dose of test compound is 3 and 10 mg/kg or 3, 10 and 30 mg/kg and each test compound solution volume was 10 ml/kg. Anti-tumor effect is estimated by survival period (from inoculation day to death day) and tumor apparent weight. [formula] Test results about survival period and tumor appearent weight are shown in the following Tables II(1) and II(2), respectively.
In experiments, statistic analysis was done with unpaired Student's t(two tailed)-test. […] P values lower than 0.05 were judged to be significant.

[2] = system: lympha cells; assay: Mitogenic activity in vitro (Blastogenic index); type: cell-based, C3H/He male mice; conditions: Mus musculus, Lymphocyte; terminal concentration 1 μg/ml; ratio of 3H-tymidine uptake vs blank control; read-out: Blastgenic Index
Procedure: (1) Mitogenic activity in vitro
Mitogenic activity means activity of activating mitogenic cell division, and in this test system, the amount of tymidine taken into lympha cells was measured and a ratio determined against a blank control call (Blastogenic index) was calculated.
For example, adding the compound prepared in example 1(c) to the test system induced 30 times the amount of tymidine taken into the lympha cells versus the control.
The amounts were measured by density of a radiolabel.
Mytogenic activity in vitro was measured by the following method (See Procedure Method of Immunoexperiment pp 315 published by Japan Immunology Society).
C3H/He male mice 6 weeks old were killed by bloodletting, and their spleens were isolated and homogenized. Homogenizing liquids were filtered with gauze, and suspending cells were prepared with PBS solution. After washing, lymphacytes fractions were gathered with lympholight M. Lymphacytes were suspended in RPMI 1640 cultivation solution (10% FEBS), and the solution was divided into 5×10^5 cells/180 μl/wells. Ten times concentration of the terminal concentration (1 μg/ml) of the compounds of the present invention were added with 20 μl portions to each of the wells.
After cultivation, ^3 H-tymidine 0.5 μCi/20 μl was added to the each cells. Cultivation was continued at 37° C. for another 24 hrs, and amounts of ^3 H-tymidine taken into the cells were measured. Mitogenic activities were calculated as by Blastogenic index in as follows. [formula]

[3] = system: RLδ1 tumor; assay: Anti-tumor effect on Balb/C mice inoculated with RLδ1 tumor; type: in vivo, female Balb/C mice; conditions: for Survival period: Day 10, day ± standard error; for effect on tumor regression: 3 mg/body, Day 14 (4 day after administration); for Appearent tumor weight: g ± standard error
Procedure: (2) Anti-tumor effect on Balb/C mice inoculated with RLδ1 tumor.
Tumor cells which had been maintained in ascites of Balb/C mouse generation after generation was used. One group is consisting of six female balb/C mice. RLδ1 tumor (1×10^5 cells/0.05 ml) was inoculated into left side of female mice of 6-week old (body weight: 18~20 g). Ten days after, when tumore size came to 7~10 mm, compound of example No. 1(1) or 1(t) was administered by i.p. route (Day 10). Dose of test compound was 1 and 3 mg/body dand each test compound solution volume was 10 ml/kg. Antitumore effect is estimated by survival period and tumor appearent weight.
Test results about survival period and tumor apparent weight are shown in the following Tables II(3) and II(4), respectively.

[4] = system: Mice L-M cells; assay: Inducing activities of TNF in vitro (cytotoxicity of serum from treated mice); type: cell-based, mice (ICR male mice serum; mice L-M cells); conditions: Mus musculus, iv; 10 μg via tail vein, serum 90 mins after; L-M cells 48 hrs; read-out: Cytotoxicities
Procedure: (2) Inducing activities of TNF in vitro
Inducing activity of TNF in vitro was measured by the following test system.
Corye parvum (manufactured by Ribi Immuno Chem. Research Inc.) was administered in ICR male mice 6-weeks old through the tail vein as priming agent. Ten days later, the compounds of the present invention (10 μg) were administered through tail vein as eliciting agent. 90 mins after the administration, blood was collected from the hearts, and blood serums were separated.
Mice L-M cells (10^4 /100 μl/well) suspended in a mixture of the diluted serum solution (100 μl/well) and RPMI 1640 cultivating solution (10% FEBS and 0.2% glucose; manufactured by Nissui Pharmaceutical Co.) were cultivated in an atmosphere of a mixed gas of 5% CO2 -[…], for 48 hrs at 37° C., after adding ^3 H-tymidine taken (0.5 μCi/20 μl/well). Amounts of ^3 H-tymidine taken into cells during the cultivation were measured.
Inducing activities of TNF were measured by cytotoxicity calculated as follows: [formula]

[5] = dose 1 (mg/kg as printed) ip, Day 10 (first column)
[6] = dose 1 (mg/kg as printed) ip, second column printed Day 10
[7] = dose 3 (mg/kg as printed) ip, Day 10 (first column)
[8] = dose 3 (mg/kg as printed) ip, second column printed Day 10

Compound `CCCCCCCCCCOc1ccc(C(=O)N[C@H]2[C@@H](OC)O[C@H](CO)[C@@H](OS(=O)(=O)O)[C@@H]2OC(=O)c2ccc(OCCCCCCCCCC)c(OCCCCCCCCCC)c2)cc1OCCCCCCCCCC` [4(b), Methyl 2-deoxy-2-(3,4-didecyloxybenzoyl)amino-3-O-(3,4-didecyloxybenzoyl)-4-O-sulfo-α-D-glucopyranoside] has an Apperarent tumor weight ([1]; 3 mg/kg iv, Day 7) of 0.218 ± 0.028 g, an Apperarent tumor weight ([1]; 3 mg/kg iv, Day 10) of 0.172 ± 0.094 g and an Apperarent tumor weight ([1]; 3 mg/kg iv, Day 13) of 0.272 ± 0.181 g. The Apperarent tumor weight ([1]; 3 mg/kg iv, Day 16) was 0.430 ± 0.459 g, the Apperarent tumor weight ([1]; 10 mg/kg iv, Day 7) was 0.217 ± 0.022 g and the Apperarent tumor weight ([1]; 10 mg/kg iv, Day 10) was 0.154 ± 0.042 g. The Apperarent tumor weight ([1]; 10 mg/kg iv, Day 13) was 0.197 ± 0.068 g, the Apperarent tumor weight ([1]; 10 mg/kg iv, Day 16) was 0.172 ± 0.141 g and the “effect on prolongation of life” value [1] was “significant effect”. The “effect on tumore regression” value [1] was “significant effect”, the Survival period ([1]; dose 3 (mg/kg)) was 61.6 ± 18.0 days and the Survival period ([1]; dose 10 (mg/kg)) was 65.8 ± 20.4 days.

Work on `CCCCCCCCCCCC(CC(=O)N[C@H]1COC[C@@H](OS(=O)(=O)O)[C@@H]1OC(=O)CCCCCCCCc1ccccc1)OC(=O)CCCCCCCCc1ccccc1` (single isomer, unassigned) [3(c), 2-deoxy-2-[3-(9-phenylnonanoyl)oxytetradecanoyl]amino-3-O-(9-phenylnonanoyl)-4-O-sulfo-1,5-anhydro-D-xylitol] yielded a fold induction at 1 µg/mL [2] of 13.8.

In the case of `CCCCCCCCCCC[C@@H](CC(=O)N[C@H]1C(O)O[C@H](CO)[C@@H](OS(=O)(=O)O)[C@@H]1OC(=O)CCCCCCCOc1ccccc1)OC(=O)CCCCCCCOc1ccccc1` (stereo partly drawn) [1(l), 2-deoxy-2-[3S-(8-phenoxyoctanoyloxy)tetradecanoyl]amino-3-O-(8-phenoxyoctanoyl)-4-O-sulfo-D-glucopyranose], the Survival period ([3]; 1 mg/body ip) is reported as 47.3 ± 18.8 days, the Survival period ([3]; 3 mg/body ip) is reported as 55.3 ± 16.4 days and the “effect on tumor regression” value [3] is reported as “significant effect”. For the same compound, the Appearent tumor weight [3, 5] was 0.216 ± 0.043 g, the Appearent tumor weight [3, 6] was 0.234 ± 0.168 g and the Appearent tumor weight ([3]; dose 1 (mg/kg) ip, Day 13) was 0.351 ± 0.349 g. The Appearent tumor weight [3, 7] was 0.216 ± 0.029 g, the Appearent tumor weight [3, 8] was 0.210 ± 0.192 g and the Appearent tumor weight ([3]; dose 3 (mg/kg) ip, Day 13) was 0.333 ± 0.375 g.

`CCCCCCCCCCC[C@@H](CC(=O)N[C@H]1C(O)O[C@H](CO)[C@@H](OS(=O)(=O)O)[C@@H]1OC(=O)CCCCCCCCc1cccc2ccccc12)OC(=O)CCCCCCCCc1cccc2ccccc12` (stereo partly drawn) [1(o), 2-deoxy-2-[3S-[9-(1-naphthyl)nonanoyloxy]tetradecanoyl]amino-3-O-[9-(1-naphthyl)nonanoyl]-4-O-sulfo-D-glucopyranose] gave a fold induction at 1 µg/mL [2] of 17.

For `CCCCCCCCCCCCCC(=O)N[C@H]1C(O)O[C@H](CO)[C@@H](OS(=O)(=O)O)[C@@H]1OC(=O)c1ccc(OCCCCCCCCCC)c(OCCCCCCCCCC)c1` (stereo partly drawn) [4(c)], the Apperarent tumor weight ([1]; 3 mg/kg iv, Day 7) was 0.200 ± 0.044 g, the Apperarent tumor weight ([1]; 3 mg/kg iv, Day 10) was 0.230 ± 0.084 g and the Apperarent tumor weight ([1]; 3 mg/kg iv, Day 13) was 0.392 ± 0.176 g. The Apperarent tumor weight ([1]; 3 mg/kg iv, Day 16) was 0.578 ± 0.274 g, the Apperarent tumor weight ([1]; 10 mg/kg iv, Day 7) was 0.210 ± 0.025 g and the Apperarent tumor weight ([1]; 10 mg/kg iv, Day 10) was 0.206 ± 0.053 g. For the same compound, the Apperarent tumor weight ([1]; 10 mg/kg iv, Day 13) was 0.242 ± 0.086 g, the Apperarent tumor weight ([1]; 10 mg/kg iv, Day 16) was 0.300 ± 0.193 g and the Apperarent tumor weight ([1]; 30 mg/kg iv, Day 7) was 0.209 ± 0.023 g. For the same compound, the Apperarent tumor weight ([1]; 30 mg/kg iv, Day 10) was 0.168 ± 0.062 g, the Apperarent tumor weight ([1]; 30 mg/kg iv, Day 13) was 0.222 ± 0.152 g and the Apperarent tumor weight ([1]; 30 mg/kg iv, Day 16) was 0.309 ± 0.259 g. For the same compound, the “effect on prolongation of life” value [1] was “significant effect”, the “effect on tumore regression” value [1] was “significant effect” and the Survival period ([1]; dose 3 (mg/kg)) was 51.9 ± 8.2 days. For the same compound, the Survival period ([1]; dose 10 (mg/kg)) was 58.3 ± 13.8 days and the Survival period ([1]; dose 30 (mg/kg)) was 71.3 ± 16.1 days.

Work on `O=C(CCCCCCCCc1cccc2ccccc12)N[C@H]1C(O)O[C@H](CO)[C@@H](OS(=O)(=O)O)[C@@H]1OC(=O)CCCCCCCCc1cccc2ccccc12` (stereo partly drawn) [1(u), 2-deoxy-2-[9-(1-naphthyl)nonanoyl]amino-3-O-[9-(1-naphthyl)nonanoyl]-4-O-sulfo-D-glucopyranose] yielded a fold induction at 1 µg/mL [2] of 10.

With `CCCCCCCCCCC[C@@H](CC(=O)N[C@H]1C(O)O[C@H](CO)[C@@H](OS(=O)(=O)O)[C@@H]1OC(=O)CCCCCCCCCCc1ccccc1)OC(=O)CCCCCCCCCCc1ccccc1` (stereo partly drawn) [1(f), 2-deoxy-2-[3S-(11-phenylundecanoyloxy)tetradecanoyl]amino-3-O-(11-phenylundecanoyl)-4-O-sulfo-D-glucopyranose] the fold induction at 1 µg/mL [2] was 23.

With `CCCCCCCCCCC[C@@H](CC(=O)N[C@H]1CO[C@H](C)[C@@H](OS(=O)(=O)O)[C@@H]1OC(=O)CCCCCCCCc1ccccc1)OC(=O)CCCCCCCCc1ccccc1` [Example 2, 2,6-deoxy-2-[3S-(9-phenylnonanoyloxy)tetradecanoyl]amino-3-O-(9-phenynonanoyl)-4-O-sulfo-1,5-anhydro-D-glucitol] the fold induction at 1 µg/mL [2] was 33.

For `CCCCCCCCCCC[C@H](CC(=O)N[C@H]1[C@H](OC)O[C@H](CO)[C@@H](OS(=O)(=O)O)[C@@H]1OC(=O)CCCCCCCCc1ccccc1)OC(=O)CCCCCCCCc1ccccc1` [1(t), 2-methyl-2-deoxy-2-[3R-(9-phenylnonanoyloxy)tetradecanoyl]amino-3-O-(9-phenylnonanoyl)-4-O-sulfo-β-D-glucopyranoside], the Survival period ([3]; 1 mg/body ip) was 51.8 ± 20.1 days, the Survival period ([3]; 3 mg/body ip) was 54.0 ± 18.4 days and the “effect on tumor regression” value [3] was “significant effect”. For the same compound, the Appearent tumor weight [3, 5] was 0.226 ± 0.082 g, the Appearent tumor weight [3, 6] was 0.241 ± 0.257 g and the Appearent tumor weight ([3]; dose 1 (mg/kg) ip, Day 13) was 0.383 ± 0.583 g. For the same compound, the Appearent tumor weight [3, 7] was 0.213 ± 0.041 g, the Appearent tumor weight [3, 8] was 0.159 ± 0.092 g and the Appearent tumor weight ([3]; dose 3 (mg/kg) ip, Day 13) was 0.147 ± 0.153 g. It also gave a fold induction at 1 µg/mL [2] of 50.

`CCCCCCCCCCCC(CC(=O)N[C@H]1COC[C@@H](OS(=O)(=O)O)[C@@H]1OC(=O)CCCCCCCCc1ccccc1)OC(=O)CCCCCCCCc1ccccc1` (single isomer, unassigned) [Example 3, 2-deoxy-2-[3-(9-phenylnonanoyl)oxytetradecanoyl]amino-3-O-(9-phenylnonanoyl)-4-O-sulfo-1,5-anhydro-D-xylitol] was tested, and the cytotoxicity at 0.01 mg [4] was 50.7%.
